Results: patent US12246026B2, “Ganaxolone for use in treatment of status epilepticus” (Marinus Pharmaceuticals, Inc., priority 2019, dated 2025)

Key:
Solubility of ganaxolone = assay type: physicochemical
Procedure: Ganaxolone is insoluble in water. […] Ganaxolone has a relatively long half-life—approximately 20 hours in human plasma following oral administration (Nohria, V. and Giller, E., Neurotherapeutics, (2007) 4(1): 102-105). Furthermore, ganaxolone has a short Tmax, which means that therapeutic blood levels are reached quickly.
Ganaxolone formulations suitable for parenteral administration in the methods of the present invention may comprise physiologically acceptable sterile aqueous or non-aqueous solutions, dispersions, suspensions or emulsions, and sterile powders for reconstitution into sterile injectable solutions or dispersions. Examples of suitable aqueous and non-aqueous carriers, diluents, solvents, or vehicles including water, ethanol, polyols (propylene glycol, polyethylene-glycol, glycerol, cremophor and the like), suitable mixtures thereof, vegetable oils (such as olive oil) and injectable organic esters such as ethyl oleate. Additionally, ganaxolone can be dissolved at concentrations of >1 mg/ml using water soluble beta cyclodextrins (e.g. beta-sulfobutyl-cyclodextrin and 2-hydroxypropylbetacyclodextrin). A particularly suitable cyclodextrin is a substituted-β-cyclodextrin is Captisol®. […]

[1] = Safety in the ganaxolone clinical development program; assay type: in vivo, human
Text: In the completed placebo-controlled Phase 1, 2, and 3 studies, 0.32% of subjects who received ganaxolone and 0.46% of subjects who received placebo developed elevated LFTs during the study (>3×ULN AST and/or ALT). A subject participating in the ganaxolone paediatric epilepsy study developed liver failure, which was not considered to be related to ganaxolone. The subject was diagnosed with short bowel syndrome, liver steatosis and IgG-cholangitis, which were considered to be the causal factors for the subject's liver failure. There have been no other cases of Hy's Law or liver failure in the ganaxolone development program. […] After cessation of the dosing, plasma ganaxolone levels are expected to drop rapidly, but it is possible that low sub-therapeutic levels persist for several days as ganaxolone is slowly released from tissues.
Ganaxolone has been administered to infants with severe forms of epilepsy as early as 4 months of age. In clinical trials involving administration of ganaxolone over several weeks, the study drug has been tapered off over a 1 to 2-week period.

subject with SRSE = test: Emergency IND No. 131,642, IV GNX in SRSE, EEG response; assay type: in vivo, human
Procedure: (§1) Under eIND No. 131,642, IV GNX was administered to a subject with SRSE who was unable to maintain status cessation with ketamine and barbiturates. The Day 1 dosage regimen delivered 900 mg of GNX, equating to a 900 to 1200 ng/mL plasma concentration of GNX. As the subject could not be maintained in burst suppression, the clinical team was able to utilize EEG changes to gauge the response (FIG. 11). […] However, due to the dosing plan agreed upon with the FDA with a daily Captisol limit of 63 g/day, the initial 120 mg/hr dose on Day 1 could not be maintained for longer than 1 hour and then had to be decreased to the 30 mg/hr dose. The first seizures re-occurred within 15 to 20 minutes of the change in GNX dose from 120 mg/hr to 30 mg/hr.

[2] = Emergency IND No. 131,642, GNX plasma concentration; assay type: in vivo; settings: human, intravenous, eIND 131,642, Day 1 regimen delivering 900 mg
Procedure: as §1

RSE patients = test: Phase 2 open-label dose range study, efficacy in RSE patients; assay type: in vivo, human; settings: for GNX plasma concentration whose acute maintenance was associated with improved seizure control on EEG: PK/PD relationship, FIGS. 13A-13D
Procedure: Eligible patients were treated with continuous adjunctive IV ganaxolone infusion. Initial dosing included a 3-minute bolus dose (25 or 30 mg) with a continuous infusion at rates ranging from 10 to 85 mg/hour for up to 96-hours, followed by an 18-hour study drug taper.
The study enrolled 17 patients divided among 3 dosing cohorts. The IV solution utilizes Captisol® as an excipient for solubilization of ganaxolone. In an agreement with the Food and Drug Administration (FDA), the Captisol exposure for patients participating in Study 1042-SE-2001 was not to exceed 50 g/day. Given the daily Captisol limit, 3 different doses of GNX IV solution were investigated; 500, 650, and 713 mg/day total GNX referred to as the low, medium, and high dose level cohorts, respectively.

[3] = Phase 2 open-label dose range study, safety
Text: Secondary objectives included assessment of adverse events and evaluation of the pharmacokinetics of IV ganaxolone in patients with SE.

[4] = test system: pediatric subject with SRSE; test: Emergency IND No. 137,883, IV GNX in pediatric SRSE
[5] = Medium cohort, 650 mg/day, n = 4
[6] = Target cohort, 713 mg/day, n = 8

## CC(=O)[C@H]1CC[C@H]2[C@@H]3CC[C@H]4C[C@](C)(O)CC[C@]4(C)[C@H]3CC[C@]12C [Ganaxolone, 3α-hydroxy-3β-methyl-5α-pregnan-20-one]
Solubility of ganaxolone; aqueous with cosolvent or surfactant or cyclodextrin, beta-sulfobutyl-cyclodextrin, 2-hydroxypropylbetacyclodextrin, read-out: dissolved concentration using water soluble beta cyclodextrins
  solubility: > 1000 µg/mL
Solubility of ganaxolone; water
  solubility in water: insoluble
[1]; clinical trials, tapered off over 1 to 2 weeks
  withdrawal symptoms after cessation: no reports of withdrawal symptoms
[1]; completed placebo-controlled Phase 1, 2 and 3 studies
  subjects who developed elevated LFTs (>3×ULN AST and/or ALT): 0.32%
[1]; development program overall
  trends in ECG intervals, vital signs, physical or neurological examinations: no clinically significant trends
[1]; ganaxolone and its metabolites
  excretion to breast milk: excreted to breast milk
Subject with SRSE; eIND 131,642
  dose at which the effect of GNX started: 60 mg/h
Subject with SRSE; eIND 131,642, at 120 mg/hr
  EEG seizure response: complete seizure cessation
Subject with SRSE; eIND 131,642, change from 120 mg/hr to 30 mg/hr
  time to first seizure re-occurrence after dose change: 15 to 20 min
[2]
  concentration at 1 day: 900 to 1200 ng/mL
RSE patients; 15 evaluable patients, low, medium and high cohorts
  reduction in EEG seizure burden: rapid and dose-dependent sustained reduction in EEG seizure burden
RSE patients; Low cohort, 500 mg/day, 1 of 2 (1 died)
  No SE Relapse at anytime during the 4-wk follow up period: 50%
RSE patients; Low cohort, 500 mg/day, n = 5
  No escalation to IV anesthetics within 24 hrs from infusion initiation(Primary Endpoint): 100%
  No escalation to additional IV AEDs or IV anesthetics for status relapse at any time through 24 hrs after GNX discontinuation: 60%
  Status-free through 24 hrs from infusion initiation: 100%
RSE patients; Medium cohort, 650 mg/day, 2 of 3 (1 ET)
  No SE Relapse at anytime during the 4-wk follow up period: 67%
RSE patients; [5]
  No escalation to IV anesthetics within 24 hrs from infusion initiation(Primary Endpoint): 100%
  No escalation to additional IV AEDs or IV anesthetics for status relapse at any time through 24 hrs after GNX discontinuation: 75%
  Status-free through 24 hrs from infusion initiation: 100%
RSE patients
  GNX plasma concentration whose acute maintenance was associated with improved seizure control on EEG: ≥ 500 ng/mL
RSE patients; listed as GNX
  GNX plasma concentration whose acute maintenance was associated with improved seizure control on EEG: > 500 ng/mL
RSE patients; Target cohort, 713 mg/day, 6 of 6 (1ET, 1 died)
  No SE Relapse at anytime during the 4-wk follow up period: 100%
RSE patients; [6]
  No escalation to IV anesthetics within 24 hrs from infusion initiation(Primary Endpoint): 100%
  No escalation to additional IV AEDs or IV anesthetics for status relapse at any time through 24 hrs after GNX discontinuation: 100%
  Status-free through 24 hrs from infusion initiation: 88%
RSE patients; all cohorts, 14 patients of 17
  patients not requiring additional IV AEDS or IV anesthetics for status relapse up to 4 weeks: 82%
RSE patients; all cohorts, 16 patients of 17
  patients who achieved and maintained SE cessation within the first 24-hours: 94%
RSE patients; all cohorts, n=17
  patients not requiring escalation to an IV anesthetic drug for SE control within the first 24-hours: 100%
RSE patients; all dose groups, n=15 evaluable patients
  Median time to SE cessation from initiation of GNX treatment: 5 min
RSE patients; evaluable patients
  patients with SE cessation achieved in <30 min: 14 out of 15
[3]; 17 RSE patients
  tolerability of GNX infusion: generally well-tolerated
[3]; concomitant CNS depressant medications
  participants with SAEs (severe sedation) assessed as related to GNX, leading to early discontinuation: 2 participants
[4]; eIND 137,883
  duration of suppressed EEG background: approximately 2 hours
  finding on examination leading to stop of infusion: nonreactive pupils
[4]; eIND 137,883, concomitant pentobarbital 2.25 mg/kg/hr
  EEG at the time of GNX bolus infusion: continuous suppressed background
